Tests used:
[1] = target: T1, EGFR (Homo sapiens, UniProt P00533, L858R/T790M); assay: Cell Degradation 1: EGFR degradation in H1975 cells, HTRF assay; assay type: cell-based; details: 16 h treatment, EGFR degradation by HTRF
T1 construct: endogenous in cells; host or cells: H1975
Protocol: After 16 h treatment, add 100 μl 1×lysis buffer to each well; seal the plate and incubate 1 hour at room temperature on a plate shaker; Once the cells are lysed, 16 μL of cell lysate are transferred to a PE 384-well HTRF detection plate; 4 μL of pre-mixed HTRF antibodies are added to each well; Cover the plate with a plate sealer, spin 1000 rpm for 1 min, Incubate overnight at room temperature; Read on BMG PheraStar with HTRF protocol (337 nm-665 nm-620 nm).
(§1) The IC50 (DC50) value of a compound can be obtained by fitting the following equation Y=Bottom+(TOP−Bottom)/(1+((IC50/X)^hillslope))
(§2) Wherein, X and Y are known values, and IC50, Hillslope, Top and Bottom are the parameters obtained by fitting with software. Y is the inhibition percentage (calculated from the equation), X is the concentration of the compound; IC50 is the concentration of the compound when the 50% inhibition is reached. The smaller the IC50 value is, the stronger the inhibitory ability of the compound is. Vice versa, the higher the IC50 value is, the weaker the ability the inhibitory ability of the compound is; Hillslope represents the slope of the fitted curve, generally around 1*; Bottom represents the minimum value of the curve obtained by data fitting, which is generally 0%±20%; Top represents the maximum value of the curve obtained by data fitting, which is generally 100%±20%. The experimental data were fitted by calculating and analyzing with Dotmatics data analysis software.

[2] = target: T2, EGFR (Homo sapiens, UniProt P00533, DEL746-750); assay: Cell Degradation 2: EGFR degradation in HCC827 cells, HTRF assay; assay type: cell-based; details: 16 h treatment, EGFR degradation by HTRF
T2 construct: endogenous in cells; host or cells: HCC827
T2 sequence (P00533 with tags, fused parts or gaps DEL746-750): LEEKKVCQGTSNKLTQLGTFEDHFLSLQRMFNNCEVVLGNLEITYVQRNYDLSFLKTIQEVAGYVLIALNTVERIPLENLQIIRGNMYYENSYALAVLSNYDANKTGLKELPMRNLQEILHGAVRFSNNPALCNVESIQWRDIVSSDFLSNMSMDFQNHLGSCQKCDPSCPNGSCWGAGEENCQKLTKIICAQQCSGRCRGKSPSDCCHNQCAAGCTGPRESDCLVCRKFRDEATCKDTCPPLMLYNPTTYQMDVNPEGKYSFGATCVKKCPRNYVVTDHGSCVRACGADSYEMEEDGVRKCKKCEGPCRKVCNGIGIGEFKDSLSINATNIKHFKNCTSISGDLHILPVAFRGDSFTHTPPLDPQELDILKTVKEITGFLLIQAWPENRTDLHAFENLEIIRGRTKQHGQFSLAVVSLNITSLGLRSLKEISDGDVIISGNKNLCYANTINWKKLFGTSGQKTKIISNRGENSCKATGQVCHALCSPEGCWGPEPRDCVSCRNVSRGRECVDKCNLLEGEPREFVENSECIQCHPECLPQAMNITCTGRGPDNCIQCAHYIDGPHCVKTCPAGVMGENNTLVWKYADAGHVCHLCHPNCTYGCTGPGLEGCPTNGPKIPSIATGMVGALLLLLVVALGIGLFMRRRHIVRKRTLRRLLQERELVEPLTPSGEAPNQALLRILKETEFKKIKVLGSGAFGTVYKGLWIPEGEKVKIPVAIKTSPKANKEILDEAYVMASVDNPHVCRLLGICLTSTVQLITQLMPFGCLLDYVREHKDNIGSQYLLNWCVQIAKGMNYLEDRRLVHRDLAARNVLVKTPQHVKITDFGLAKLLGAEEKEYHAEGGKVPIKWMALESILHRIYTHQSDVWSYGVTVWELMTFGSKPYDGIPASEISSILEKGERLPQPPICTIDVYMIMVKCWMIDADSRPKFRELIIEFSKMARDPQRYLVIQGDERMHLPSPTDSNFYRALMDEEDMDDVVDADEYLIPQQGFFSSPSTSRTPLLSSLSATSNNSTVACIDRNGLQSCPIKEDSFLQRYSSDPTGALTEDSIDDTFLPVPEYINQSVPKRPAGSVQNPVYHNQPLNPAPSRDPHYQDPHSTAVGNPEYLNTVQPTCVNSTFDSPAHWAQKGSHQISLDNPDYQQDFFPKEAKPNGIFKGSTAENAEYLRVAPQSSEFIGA
T2 sequence (Q96SW2 whole entry partner): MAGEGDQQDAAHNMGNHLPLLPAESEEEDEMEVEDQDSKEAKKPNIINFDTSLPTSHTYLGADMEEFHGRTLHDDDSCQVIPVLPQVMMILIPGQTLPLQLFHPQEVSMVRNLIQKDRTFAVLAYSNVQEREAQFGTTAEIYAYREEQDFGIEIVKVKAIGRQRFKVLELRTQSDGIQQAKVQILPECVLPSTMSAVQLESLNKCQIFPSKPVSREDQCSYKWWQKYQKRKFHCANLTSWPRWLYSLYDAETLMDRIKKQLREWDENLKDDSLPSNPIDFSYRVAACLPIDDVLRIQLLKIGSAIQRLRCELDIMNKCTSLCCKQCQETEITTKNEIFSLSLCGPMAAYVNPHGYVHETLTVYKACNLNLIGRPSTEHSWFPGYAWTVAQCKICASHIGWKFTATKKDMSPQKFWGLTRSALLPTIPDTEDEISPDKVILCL
Protocol: After 16 h treatment, add 100 μl 1×lysis buffer to each well; seal the plate and incubate 1 hour at room temperature on a plate shaker; Once the cells are lysed, 16 μl diluted (2 μL to 14 μl 1× lysisi buffer) cell lysate are transferred to a PE 384-well HTRF detection plate; 4 μL of pre-mixed HTRF antibodies are added to each well; Cover the plate with a plate sealer, spin 1000 rpm for 1 min, Incubate overnight at room temperature; Read on BMG PheraStar with HTRF protocol (337 nm-665 nm-620 nm).
as §1, §2

T1 sequence (P00533 25-1210 T790M/L858R): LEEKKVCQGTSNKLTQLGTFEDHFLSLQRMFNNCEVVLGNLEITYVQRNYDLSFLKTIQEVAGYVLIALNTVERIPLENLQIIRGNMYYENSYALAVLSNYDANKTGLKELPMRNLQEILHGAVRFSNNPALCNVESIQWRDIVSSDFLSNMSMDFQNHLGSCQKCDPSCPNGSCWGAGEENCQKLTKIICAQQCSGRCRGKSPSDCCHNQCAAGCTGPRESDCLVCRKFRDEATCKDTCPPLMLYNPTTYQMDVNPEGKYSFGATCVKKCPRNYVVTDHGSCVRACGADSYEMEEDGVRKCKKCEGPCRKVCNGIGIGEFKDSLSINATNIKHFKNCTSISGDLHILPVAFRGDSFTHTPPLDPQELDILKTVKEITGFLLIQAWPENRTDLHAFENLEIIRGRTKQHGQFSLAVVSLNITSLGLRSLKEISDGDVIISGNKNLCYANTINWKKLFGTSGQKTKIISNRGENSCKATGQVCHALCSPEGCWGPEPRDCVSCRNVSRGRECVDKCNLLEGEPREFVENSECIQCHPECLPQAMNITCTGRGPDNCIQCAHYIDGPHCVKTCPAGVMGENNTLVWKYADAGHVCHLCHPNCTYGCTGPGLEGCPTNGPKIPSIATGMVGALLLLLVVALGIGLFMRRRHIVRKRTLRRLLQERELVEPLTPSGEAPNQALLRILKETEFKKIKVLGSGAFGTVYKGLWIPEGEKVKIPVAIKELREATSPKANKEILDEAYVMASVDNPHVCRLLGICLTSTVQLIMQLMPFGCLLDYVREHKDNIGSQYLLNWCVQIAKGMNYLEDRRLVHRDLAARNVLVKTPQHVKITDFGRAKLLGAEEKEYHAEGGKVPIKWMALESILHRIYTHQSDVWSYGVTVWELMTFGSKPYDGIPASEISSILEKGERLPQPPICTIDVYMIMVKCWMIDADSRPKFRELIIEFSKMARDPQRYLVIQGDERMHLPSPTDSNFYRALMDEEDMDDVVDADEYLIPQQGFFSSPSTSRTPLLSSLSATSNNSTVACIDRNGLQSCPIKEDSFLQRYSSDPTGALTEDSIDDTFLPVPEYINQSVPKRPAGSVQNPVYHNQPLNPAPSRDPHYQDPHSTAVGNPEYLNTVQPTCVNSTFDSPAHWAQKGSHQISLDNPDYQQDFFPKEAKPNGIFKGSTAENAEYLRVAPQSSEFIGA

SMILES	DC50 [1] [nM]	DC50 [2] [nM]
CS(=O)(=O)N1CCc2cccc(Nc3nc(Nc4ccc(N5CCC(N6CCN(CCc7ccc(C8CCC(=O)NC8=O)cc7)CC6)CC5)c(F)c4)nc4[nH]ccc34)c21 (centres unmarked) [Example 1, 3-(4-(2-(4-(1-(2-fluoro-4-((4-((1-(methylsulfonyl)indolin-7-yl)amino)-7H-pyrrolo[2,3-d]pyrimidin-2-yl)amino)phenyl)piperidin-4-yl)piperazin-1-yl)ethyl)phenyl)piperidine-2,6-dione]	9.9	24.7
CS(=O)(=O)N1CCc2cccc(Nc3nc(Nc4ccc(N5CCC(N6CCN(C(=O)[C@H]7CCN(c8ccc9c(c8)C(=O)N(C8CCC(=O)NC8=O)C9=O)C7)CC6)CC5)c(F)c4)nc4[nH]ccc34)c21 (stereo partly drawn) [Example 63, 2-(2,6-dioxopiperidin-3-yl)-5-((S)-3-(4-(1-(2-fluoro-4-((4-((1-(methylsulfonyl)indolin-7-yl)amino)-7H-pyrrolo[2,3-d]pyrimidin-2-yl)amino)phenyl)piperidin-4-yl)piperazine-1-carbonyl)pyrrolidin-1-yl)isoindoline-1,3-dione]	3.9	> 10000
COc1cc(CCN2CCN(C3CCN(c4ccc(Nc5nc(Nc6cccc7c6N(S(C)(=O)=O)CC7)c6cc[nH]c6n5)cc4F)CC3)CC2)ccc1C1CCC(=O)NC1=O (centres unmarked) [Example 2, 3-(4-(2-(4-(1-(2-fluoro-4-((4-((1-(methylsulfonyl)indolin-7-yl)amino)-7H-pyrrolo[2,3-d]pyrimidin-2-yl)amino)phenyl)piperidin-4-yl)piperazin-1-yl)ethyl)-2-methoxyphenyl)piperidine-2,6-dione]	36.9	33.4
CN(CCCC1CN(c2ccc3c(c2)C(=O)N(C2CCC(=O)NC2=O)C3=O)C1)C1CCN(c2ccc(Nc3ncc(Cl)c(Nc4cccc5c4N(S(C)(=O)=O)CC5)n3)c3c2CCO3)CC1 (centres unmarked) [Example 50, 5-(3-(3-((1-(7-((5-chloro-4-((1-(methylsulfonyl)indolin-7-yl)amino)pyrimidin-2-yl)amino)-2,3-dihydrobenzofuran-4-yl)piperidin-4-yl)(methyl)amino)propyl)azetidin-1-yl)-2-(2,6-dioxopiperidin-3-yl)isoindoline-1,3-dione]	7.5	36.9
CS(=O)(=O)N1CCc2cccc(Nc3nc(Nc4ccc(N5CCN(CCC6CCN(c7ccc(C8CCC(=O)NC8=O)cc7)CC6)CC5)c(F)c4)nc4[nH]ccc34)c21 (centres unmarked) [Example 27, 3-(4-(4-(2-(4-(2-fluoro-4-((4-((1-(methylsulfonyl)indolin-7-yl)amino)-7H-pyrrolo[2,3-d]pyrimidin-2-yl)amino)phenyl)piperazin-1-yl)ethyl)piperidin-1-yl)phenyl)piperidine-2,6-dione]	10.6	33.6
CS(=O)(=O)N1CCc2cccc(Nc3nc(Nc4ccc(N5CCC(N6CCN(C(=O)C7CN(c8ccc(C9CCC(=O)NC9=O)cc8)C7)CC6)CC5)c(F)c4)nc4[nH]ccc34)c21 (centres unmarked) [Example 58, 3-(4-(3-(4-(1-(2-fluoro-4-((4-((1-(methylsulfonyl)indolin-7-yl)amino)-7H-pyrrolo[2,3-d]pyrimidin-2-yl)amino)phenyl)piperidin-4-yl)piperazine-1-carbonyl)azetidin-1-yl)phenyl)piperidine-2,6-dione]	2.8	17.7
COc1cc(N2CCC(N3CCN(CCC4CN(c5ccc(C6CCC(=O)NC6=O)cc5)C4)CC3)CC2)ccc1Nc1ncc(Cl)c(Nc2cccc3c2N(S(C)(=O)=O)CC3)n1 (centres unmarked) [Example 84, 3-(4-(3-(2-(4-(1-(4-((5-chloro-4-((1-(methylsulfonyl)indolin-7-yl)amino)pyrimidin-2-yl)amino)-3-methoxyphenyl)piperidin-4-yl)piperazin-1-yl)ethyl)azetidin-1-yl)phenyl)piperidine-2,6-dione]	> 10000	1980
COc1cc(N2CCC(N3CCN(CC4CCN(c5ccc(C6CCC(=O)NC6=O)cc5)CC4)CC3)CC2)c(C)cc1Nc1ncc(Br)c(Nc2cccc3c2N(S(C)(=O)=O)CC3)n1 (centres unmarked) [Example 40, 3-(4-(4-((4-(1-(4-((5-bromo-4-((1-(methylsulfonyl)indolin-7-yl)amino)pyrimidin-2-yl)amino)-5-methoxy-2-methylphenyl)piperidin-4-yl)piperazin-1-yl)methyl)piperidin-1-yl)phenyl)piperidine-2,6-dione]	10.5	8.2
CS(=O)(=O)N1CCc2cccc(Nc3nc(Nc4ccc(N5CCC(N6CCN(CCC7CCN(c8ccc9c(c8)C(=O)N(C8CCC(=O)NC8=O)C9=O)CC7)CC6)CC5)c5c4OCC5)ncc3Cl)c21 (centres unmarked) [Example 52, 5-(4-(2-(4-(1-(7-((5-chloro-4-((1-(methylsulfonyl)indolin-7-yl)amino)pyrimidin-2-yl)amino)-2,3-dihydrobenzofuran-4-yl)piperidin-4-yl)piperazin-1-yl)ethyl)piperidin-1-yl)-2-(2,6-dioxopiperidin-3-yl)isoindoline-1,3-dione]	7	3.5
CN(CCC1CCN(c2ccc(C3CCC(=O)NC3=O)c(F)c2)CC1)C1CCN(c2ccc(Nc3ncc(Cl)c(Nc4cccc5c4N(S(C)(=O)=O)CC5)n3)c3c2CCO3)CC1 (centres unmarked) [Example 46, 3-(4-(4-(2-((1-(7-((5-chloro-4-((1-(methylsulfonyl)indolin-7-yl)amino)pyrimidin-2-yl)amino)-2,3-dihydrobenzofuran-4-yl)piperidin-4-yl)(methyl)amino)ethyl)piperidin-1-yl)-2-fluorophenyl)piperidine-2,6-dione]	23.2	32.2
CS(=O)(=O)N1CCc2cccc(Nc3nc(Nc4ccc(N5CCC(N6CCN(CCC7CCN(c8ccc(C9CCC(=O)NC9=O)c(F)c8)CC7)CC6)CC5)c(F)c4)nc4[nH]ccc34)c21 (centres unmarked) [Example 9, 3-(2-fluoro-4-(4-(2-(4-(1-(2-fluoro-4-((4-((1-(methylsulfonyl)indolin-7-yl)amino)-7H-pyrrolo[2,3-d]pyrimidin-2-yl)amino)phenyl)piperidin-4-yl)piperazin-1-yl)ethyl)piperidin-1-yl)phenyl)piperidine-2,6-dione]	19.1	16.7
CS(=O)(=O)N1CCc2cccc(Nc3nc(Nc4ccc(N5CCC(N6CCN(CCOc7cccc(C8CCC(=O)NC8=O)c7)CC6)CC5)c(F)c4)nc4[nH]ccc34)c21 (centres unmarked) [Example 5, 3-(3-(2-(4-(1-(2-fluoro-4-((4-((1-(methylsulfonyl)indolin-7-yl)amino)-7H-pyrrolo[2,3-d]pyrimidin-2-yl)amino)phenyl)piperidin-4-yl)piperazin-1-yl)ethoxy)phenyl)piperidine-2,6-dione]	9	62.6
CS(=O)(=O)N1CCc2cccc(Nc3nc(Nc4ccc(N5CCC(N6CCN(CCC7CCN(c8ccc(C9CCC(=O)NC9=O)c(F)c8)CC7)CC6)CC5)c5c4OCC5)ncc3Cl)c21 (centres unmarked) [Example 51, 3-(4-(4-(2-(4-(1-(7-((5-chloro-4-((1-(methylsulfonyl)indolin-7-yl)amino)pyrimidin-2-yl)amino)-2,3-dihydrobenzofuran-4-yl)piperidin-4-yl)piperazin-1-yl)ethyl)piperidin-1-yl)-2-fluorophenyl)piperidine-2,6-dione]	19.5	12.4
COc1cc(N2CCC(N3CCN(CCC4CCN(c5ccc(C6CCC(=O)NC6=O)cc5)CC4)CC3)CC2)c(C)cc1Nc1ncc(Br)c(Nc2cccc3c2N(S(C)(=O)=O)CC3)n1 (centres unmarked) [Example 41, 3-(4-(4-(2-(4-(1-(4-((5-bromo-4-((1-(methylsulfonyl)indolin-7-yl)amino)pyrimidin-2-yl)amino)-5-methoxy-2-methylphenyl)piperidin-4-yl)piperazin-1-yl)ethyl)piperidin-1-yl)phenyl)piperidine-2,6-dione]	20.7	16.7
CS(=O)(=O)N1CCc2cccc(Nc3nc(Nc4ccc(N5CCC(N6CCN(CC7CCN(c8ccc9c(c8)C(=O)N(C8CCC(=O)NC8=O)C9=O)CC7)CC6)CC5)c(F)c4)nc4[nH]ccc34)c21 (centres unmarked) [Example 16, 2-(2,6-dioxopiperidin-3-yl)-5-(4-((4-(1-(2-fluoro-4-((4-((1-(methylsulfonyl)indolin-7-yl)amino)-7H-pyrrolo[2,3-d]pyrimidin-2-yl)amino)phenyl)piperidin-4-yl)piperazin-1-yl)methyl)piperidin-1-yl)isoindoline-1,3-dione]	33.7	32.6
CS(=O)(=O)N1CCc2cccc(Nc3nc(Nc4ccc(N5CCC(N6CCN(C(=O)C7CCN(CC8CCN(c9ccc%10c(c9)C(=O)N(C9CCC(=O)NC9=O)C%10=O)CC8)CC7)CC6)CC5)c(F)c4)nc4[nH]ccc34)c21 (centres unmarked) [Example 14, 2-(2,6-dioxopiperidin-3-yl)-5-(4-((4-(4-(1-(2-fluoro-4-((4-((1-(methylsulfonyl)indolin-7-yl)amino)-7H-pyrrolo[2,3-d]pyrimidin-2-yl)amino)phenyl)piperidin-4-yl)piperazine-1-carbonyl)piperidin-1-yl)methyl)piperidin-1-yl)isoindoline-1,3-dione]	27.1	92.2

From US12643903B2, “Bifunctional compounds for degradation of EGFR and related methods of use” (BeiGene, Ltd., priority 2020, dated 2026)
